The text below walks through data of patent publication US20060029668A1, “Sustained release L-arginine formulations and methods of manufacture and use” (priority 2002, published 2006).

Test [1] relates to endothelium-dependent vasodilation. The experiment in a line: Endothelium-dependent vasodilation by brachial artery ultrasound in subjects with elevated ADMA. The class given is in vivo, human. The conditions noted are these: subjects in whom eNOS is blocked by elevated ADMA levels.
For the next test, the system named is eNOS. As to the kind of experiment: eNOS function in cultured human aortic endothelial cells (conversion of labeled L-arginine to L-citrulline). Type of test: cell-based. Particulars: HAEC incubated with 1.0 or 0.3 μM simvastatin for 24 hours; relative to untreated cells. The method, then: Human aortic endothelial cells (HAEC-c) (BioWhittaker, Walkersville, Md.) were cultured according to the following procedure. Endothelial cells in EBM-2/EGM-2 media (BioWhittaker) were grown to about 80% to about 90% confluence. Each flask of cells was washed with 5 ml media followed by the addition of 15 ml media to each cell. Cells were detached with a cell scraper and transferred to a 50 ml conical tube. Cells were pelleted by centrifugation at 800 RMP for 8 min. The supernatant was discarded and the pellet was washed with cold 1× PBS.
The cells were homogenized as follows. The pellet was loosened and 400 μl of 10× homogenization buffer (250 mM Tris at pH 7.4, 10 mM EDTA and 10 mM EGTA) was added. The sample was homogenized using a 27 G needle about 10 times. The homogenate was transferred to a 1.5 ml epindorph tube. The pellet was subsequently resuspended in 30 to 45 μl of 1× homogenization buffer. […]
Following incubation, about 400 μl of stop equilibration buffer (50 mM NaAcetate at pH 5.5) was added to each sample and control. […] Results are calculated, in part, by subtracting background (buffer control) from each sample. The sample values are expressed as counts per minute or as a percent of untreated cells.
Relative eNOS function was measured by the conversion of labeled-L-arginine to L-citrulline and expressed as a percent of citrulline produced by the non-treated cells. […]

Another test concerns infarct volume. The experiment in a line: Dose optimization of combination of simvastatin and L-arginine, infarct volume in mice. Type of test: in vivo. The conditions noted are these: mice injected with varying levels of simvastatin and L-arginine; predicted by statistical analysis.

Regarding `CCC(C)(C)C(=O)O[C@H]1C[C@@H](C)C=C2C=C[C@H](C)[C@H](CC[C@@H]3C[C@@H](O)CC(=O)O3)[C@H]21` [simvastatin w/o L-arginine SR, simvastatin], the “effect on endothelial function” value in test [1] is “does not enhance”. For the same molecule, in the test on eNOS, the “level of eNOS function” value was “increases”.

Consider `N=C(N)NCCC[C@H](N)C(=O)O` [L-arginine], for which, in the test on infarct volume, the “optimal range of the combination” value is 20 to 25 mg/kg.
